According to US12648919B2, “Anticoccidial composition comprising coumaric acid and use thereof” (CJ CHEILJEDANG CORPORATION, priority 2021, dated 2026):

Experiments:
[1] = system: Eimeria tenella protozoa (sporozoites); assay: Direct killing effect against Eimeria tenella protozoa (sporozoites), microscopic count; settings: 10 ppm; death rate compared to PBS-treated negative control group
Protocol: (§1) A certain amount of oocysts of the protozoa was put in a tube containing glass beads and pulverized, and then to remove the crushed oocyst cell wall and other debris, internal sporocysts were purified using the percoll density gradient, and washed with PBS solution. A reagent comprising sodium taurocholic acid (Sigma aldrich, USA) and trypsin (Gibco, USA), respectively, was treated to sporocysts of Eimeria tenella for excystation and they were incubated, and then they were washed with PBS solution once and protozoa were obtained.
After reacting 0.1% DMSO, m-coumaric acid (sigma, 14755-02-3), Caffeic acid (sigma, 331-39-5) and Ferulic acid (sigma, 1135-24-6) with the Eimeria tenella protozoa at a concentration of 10 ppm, respectively, only alive protozoa (sporozoites) were counted through microscopic observation. Then, the death rate (%) of the protozoa when each material was treated compared to the PBS-treated negative control group was measured, and the result was shown in Table 8 below.

Eimeria acervulina = assay: Cell invasion inhibition of Eimeria acervulina protozoa in MDBK cells (PCR, ACE gene); format: cell-based; settings: 40° C., 24 hours, p-coumaric acid, gallic acid, salinomycin 10 ppm, diclazuril 1 ppm
Protocol: as §1, with “each of Eimeria tenella and Eimeria acervulina” for “the protozoa”, “tenella, Eimeria acervulina and Eimeria maxima” for “tenella”
(§2) The protozoa of Eimeria tenella and Eimeria acervulina were obtained by the method of Example 3-1 above. Sporozoites of 2×10^5 per well were added to a well in which MDBK cells (purchased from ATCC) spread as a monolayer and each material (p-coumaric acid: sigma, CAS No. 501-98-4, and anticoccidial agents, gallic acid: sigma, CAS No. 149-91-7, salinomycin: CAS No. sigma, 53003-10-4, diclazuril: sigma, CAS No. 101831-37-2, p-coumaric acid, gallic acid and salinomycin were treated by 10 ppm, and diclazuril was treated by 1 ppm) was treated to the cells, and cultured at a temperature of 40° C. for 24 hours. The negative control group is MDBK cells infected by the protozoa, and the positive control group means a group in which gallic acid, salinomycin or diclazuril solution was incubated with the protozoa. […] After removing the cells and protozoa inside the cells through pipetting, DNA was extracted from the cells, and PCR was performed using E. tenella ITS-1 (Internal transcribed spacer-1) gene or E. acervulina ACE gene-specific primers. The sequences of the used primers were described in Table 5 below.
(§3) Ct values before/after washing for each material were compared and corrected with the ΔCt value of the negative control group to calculate the fold change (2^−ΔCt) at each time point compared to the control group, and the invasion inhibition rate (%) of the protozoa by material treatment was calculated, and the result was shown in Table 6 and Table 7.

Eimeria tenella [2] = assay: Cell invasion inhibition of Eimeria tenella protozoa in MDBK cells (PCR, ITS-1 gene); format: cell-based; settings: for inhibition at 10 ppm: read-out: Invasion inhibition %
Protocol: as §1, with “each of Eimeria tenella and Eimeria acervulina” for “the protozoa”, “tenella, Eimeria acervulina and Eimeria maxima” for “tenella”
as §2, §3
By the similar method to Example 3-2 above, 0.1% DMSO, p-coumaric acid (sigma, CAS No. 501-98-4), m-coumaric acid (sigma, 14755-02-3), and o-coumaric acid (sigma, 614-60-8) were treated at a concentration of 10 ppm, respectively, and the cell invasion inhibition rate against the Eimeria tenella protozoan was measured, and the result was shown in Table 9.

Eimeria tenella [3] = assay: Intracellular propagation inhibition of Eimeria tenella protozoa in MDBK cells (PCR, ITS-1 gene); format: cell-based
Protocol: as §1, with “each of Eimeria tenella and Eimeria acervulina” for “the protozoa”, “tenella, Eimeria acervulina and Eimeria maxima” for “tenella”
The protozoa of Eimeria tenella were obtained by the method of Example 3-1 above. […] Each material (p-coumaric acid, and anticoccidial agents, gallic acid, salinomycin: 10 ppm and diclazuril: 1 ppm) to the cells, and further cultured at a temperature of 40° C. for 24 hours.
The negative control group is MDBK cells infected by the protozoa, and the positive control group means a group in which salinomycin, gallic acid, or diclazuril solution was incubated with the protozoa. After removing the cells and protozoa inside the cells through pipetting, DNA was extracted from the cells using DNA extract kit (iNtRON Biotechnology), and PCR was performed using E. tenella ITS-1 (Internal transcribed spacer-1) gene-specific primers. The sequences of the used primers were described in Table 5 above. Ct values before/after washing for each material were compared and corrected with the ΔCt value of the negative control group to calculate the fold change (2^−ΔCt) at each time point compared to the control group, and the invasion inhibition rate (%) of the protozoa by material treatment was calculated, and the result was shown in Table 6 above.

Eimeria tenella [4] = assay: In vivo anticoccidial efficacy in broilers challenge-inoculated with Eimeria tenella oocysts (anticoccidial index); set-up: species or system Ross broilers; settings: in feed: salinomycin 60 ppm, VantiPEARL 125 ppm, p-coumaric acid 125 ppm; for Oocyst excretion amount: feces of 6-9th day of challenge inoculation, McMaster chamber; for ADG after challenge inoculation: before challenge to 7th day after challenge, 10,000 oocysts oral/broiler; for Oocyst index: index 0/5/10/20/40 from oocyst excretion % compared to infected negative control group; for Appendix lesion index: lesion score x 10; for ACI (anticoccidial index): out of 200 points, Equation 2; for Appendix lesion score: scale 0-4, 9th day after challenge inoculation; for Survival rate: up to the 8th day after challenge inoculation
Protocol: An in vivo efficacy evaluation test was performed in an exclusive broiler animal experiment facility in U.S. One-day-old female Ross broilers were individually weighed and randomly divided into groups to use in an experiment.
For the feed, Korea Feed A1-choi product was used, and each material (salinomycin (Cheil Bio Cheilsalino-60 product), VantiPEAL (Kemin, Cozante, key substance: Gallic acid), p-coumaric acid (CAS No. 501-98-4; sigma)) was added to the feed, respectively, at a concentration described in Table 3 below to be self-mixed. Antibiotics and supplements were not used in general feed and mixed feed, and no anticoccidial agent other than each material was added. Broilers were fed ad libitum throughout the experiment period.
Coccidiosis induction was performed by oral inoculation (challenge inoculation) in an oral tube type of 10,000 oocysts with over 90% mature (sporulation) Eimeria tenella per one individual to 14-day-old broilers.
The feed formulation administered to the control group (negative control group or positive control group) and test group and whether coccidiosis was induced by Eimeria tenella were described in Table 3 below. 6 1-day-old broilers were put in a cage randomly arranged for each test group, and after 14 days of feeding the general feed, the formulated feed prepared above was divided into each control group or test group and ingested.
The anticoccidial efficacy by test group designed in Example 1-2 above was shown as an anticoccidial index (ACI), and the anticoccidial index was calculated by Equation 2 below. The ACI score is out of 200 points, and the higher the ACI score, the more excellent the anticoccidial ability, and when it is 120 points or more to less than 140 points, it is determined that it is effective as an anticoccidial material, and when it is 140 points or more to less than 160 points, it is determined that it is excellent as an anticoccidial material, and when it is 160 points or more, it is determined that the anticoccidial effect is very excellent. (Luis Miguel De Pablos et al., Anticoccidial activity of maslinic acid against infection with Eimeria tenella in chickens, Parasitol Res, 2010) Anticoccidial index (ACI)=(survival rate after challenge inoculation (%))+(daily weight gain compared to negative control group (RWG, %))−(lesion score×10)−(fecal oocyst excretion amount index) (Equation 2)
1) Survival rate: the number of dead individuals was recorded daily, and post mortem autopsy was performed to determine a cause of mortality, and the number of individuals who died due to causes other than coccidiosis was excluded. The survival rate (%) up to the 8th day after challenge inoculation was used for anticoccidial index calculation.
2) Daily weight gain: body weight was measured for each cage before challenge inoculation with a protozoan into an individual and at the 7th day after challenge inoculation, and the difference was divided by the number of days to calculate the daily weight gain (ADG, g/d). ‘Daily weight gain compared to the negative control group (RWG, %)’ which was calculated by dividing the daily weight gain (ADG, average daily gain: g/d) of each experimental group by the weight gain (ADG, g/d) of the non-infected negative control group and multiplying by 100 was used for anticoccidial index calculation.
3) Lesion scoring: On the 9th day after challenge inoculation, an autopsy was conducted for 4 broilers per cage, and the intestines were incised and opened. Scoring was performed for each coccidial lesion in the appendix region of the broilers. The lesion scoring method was performed by referring to Johnson J K & Reid W M (1970) document (Joyce Johnson, W. Malcolm Reid, Anticoccidial drugs: Lesion scoring techniques in battery and floor-pen experiments with chickens, Experimental parasitology, 1970). […]

[5] = Eimeria tenella, Example 4-2, MDBK cells, 10 ppm
[6] = Example 3-2, MDBK cells, 40° C., 24 hours, p-coumaric acid, gallic acid, salinomycin 10 ppm, diclazuril 1 ppm
[7] = MDBK cells, material added after 24 h invasion and washing, further 24 hours at 40° C., p-coumaric acid, gallic acid, salinomycin 10 ppm, diclazuril 1 ppm

COc1cc(/C=C/C(=O)O)ccc1O [Ferulic acid]
Killed sporozoites % [1]: 0%

CC[C@@H](C(=O)[C@@H](C)[C@@H](O)[C@H](C)[C@@H]1O[C@@H]([C@@H](CC)C(=O)O)CC[C@@H]1C)[C@H]1O[C@]2(C=C[C@@H](O)[C@]3(CC[C@@](C)([C@H]4CC[C@](O)(CC)[C@H](C)O4)O3)O2)[C@H](C)C[C@@H]1C [Salinomycin, salinomycin]
inhibition at 10 ppm (Eimeria acervulina; Eimeria acervulina): 59.4%
inhibition at 10 ppm (Eimeria tenella [2]; Eimeria tenella, MDBK, 24 h): 56.4%
inhibition at 10 ppm (Eimeria tenella [3]; Eimeria tenella, MDBK, 24 h, read-out: Propagation inhibition %): 34.8%
Oocyst excretion amount (Eimeria tenella [4]): 6.3 × 10^7 Oocyst/chicken
RWG (daily weight gain compared to the non-infected negative control group) (Eimeria tenella [4]): 81.8%
ADG after challenge inoculation (Eimeria tenella [4]): 45 g/day
Oocyst index (Eimeria tenella [4]): 10
Appendix lesion index (Eimeria tenella [4]): 22.7
ACI (anticoccidial index) (Eimeria tenella [4]): 149 points
Appendix lesion score (Eimeria tenella [4]): 2.27
Survival rate (Eimeria tenella [4]): 100%

O=C(O)/C=C/c1ccccc1O [o-coumaric acid]
inhibition at 10 ppm (Eimeria tenella [2]; [5]): 39.6%

O=C(O)/C=C/c1ccc(O)cc1 [p-coumaric acid]
Invasion inhibition % (Eimeria acervulina): 82.6%
inhibition at 10 ppm (Eimeria tenella [2]; [5]): 7.98%
Invasion inhibition % (Eimeria tenella [2]; [6]): 54.3%
Propagation inhibition % (Eimeria tenella [3]; [7]): 43.9%
Oocyst excretion amount (Eimeria tenella [4]): 5.7 × 10^7 Oocyst/chicken
RWG (daily weight gain compared to the non-infected negative control group) (Eimeria tenella [4]): 94.5%
ADG after challenge inoculation (Eimeria tenella [4]): 52 g/day
Oocyst index (Eimeria tenella [4]): 10
Appendix lesion index (Eimeria tenella [4]): 25
ACI (anticoccidial index) (Eimeria tenella [4]): 160 points
Appendix lesion score (Eimeria tenella [4]): 2.5
Survival rate (Eimeria tenella [4]): 100%

N#CC(c1ccc(Cl)cc1)c1c(Cl)cc(-n2ncc(=O)[nH]c2=O)cc1Cl (stereo not shown) [Diclazuril, diclazuril]
inhibition at 1 ppm (Eimeria acervulina; Eimeria acervulina): 42.7%
inhibition at 1 ppm (Eimeria tenella [2]; Eimeria tenella, Example 3-2, MDBK cells, 40° C., 24 hours, p-coumaric acid, gallic acid, salinomycin 10 ppm, diclazuril 1 ppm): 6.3%
inhibition at 1 ppm (Eimeria tenella [3]; Eimeria tenella, MDBK cells, material added after 24 h invasion and washing, further 24 hours at 40° C., p-coumaric acid, gallic acid, salinomycin 10 ppm, diclazuril 1 ppm): 52.9%

O=C(O)/C=C/c1cccc(O)c1 [m-coumaric acid]
Killed sporozoites % [1]: 10.7%
inhibition at 10 ppm (Eimeria tenella [2]; [5]): 29.8%

O=C(O)/C=C/c1ccc(O)c(O)c1 [Caffeic acid]
Killed sporozoites % [1]: 0%

O=C(O)c1cc(O)c(O)c(O)c1 [Gallic acid, gallic acid]
Invasion inhibition % (Eimeria acervulina): 60.6%
Invasion inhibition % (Eimeria tenella [2]; [6]): 90.1%
Propagation inhibition % (Eimeria tenella [3]; [7]): 0.0%
